Measurements: paper PMC9532703, “A novel small molecule RK-019 inhibits FGFR2-amplification gastric cancer cell proliferation and induces apoptosis in vitro and in vivo” (Frontiers in Pharmacology, 2022)

Legend:
Test in all cases: Kinase selectivity panel
Format in all cases: biochemical
[1] = target: T1, AMPKα1(h) (Homo sapiens, UniProt Q13131); conditions: read-out: Inhibition(%) @ 1 µM RK-019
T1 construct: purchased Eurofins Discovery Services (KinaseProfiler)
Summary of the method: (§1)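 Selectivity profiling used one concentration (1 µM) in an ATP-site competition binding assay over 422 recombinant human kinases; data given as inhibition ratio.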

[2] = target: T2, ATM(h) (Homo sapiens, UniProt Q13315); conditions: read-out: Inhibition(%) @ 1 µM RK-019
T2 construct: purchased Eurofins Discovery Services (KinaseProfiler)
Summary of the method: as §1

[3] = target: T3, ATR/ATRIP(h) (Homo sapiens, UniProt Q13535); conditions: read-out: Inhibition(%) @ 1 µM RK-019
T3 construct: purchased Eurofins Discovery Services (KinaseProfiler)
Summary of the method: as §1

[4] = target: T4, Aurora-C(h) (Homo sapiens, UniProt Q9UQB9); conditions: read-out: Inhibition(%) @ 1 µM RK-019
T4 construct: purchased Eurofins Discovery Services (KinaseProfiler)
Summary of the method: as §1

[5] = target: T5, Axl(h) (Homo sapiens, UniProt P30530); conditions: read-out: Inhibition(%) @ 1 µM RK-019
T5 construct: purchased Eurofins Discovery Services (KinaseProfiler)
Summary of the method: as §1

[6] = target: T6, BRK(h) (Homo sapiens, UniProt Q13882); conditions: read-out: Inhibition(%) @ 1 µM RK-019
T6 construct: purchased Eurofins Discovery Services (KinaseProfiler)
Summary of the method: as §1

[7] = target: T7, BrSK2(h) (Homo sapiens, UniProt Q8IWQ3); conditions: read-out: Inhibition(%) @ 1 µM RK-019
T7 construct: purchased Eurofins Discovery Services (KinaseProfiler)
Summary of the method: as §1

[8] = target: T8, CDK1/cyclinB(h) (Homo sapiens, UniProt P06493); conditions: read-out: Inhibition(%) @ 1 µM RK-019
T8 construct: purchased Eurofins Discovery Services (KinaseProfiler)
Summary of the method: as §1

[9] = target: T9, CDKL2(h) (Homo sapiens, UniProt Q92772); conditions: read-out: Inhibition(%) @ 1 µM RK-019
T9 construct: purchased Eurofins Discovery Services (KinaseProfiler)
Summary of the method: as §1

[10] = target: T10, CHK1(h) (Homo sapiens, UniProt O14757); conditions: read-out: Inhibition(%) @ 1 µM RK-019
T10 construct: purchased Eurofins Discovery Services (KinaseProfiler)
T10 sequence (O14757 whole entry): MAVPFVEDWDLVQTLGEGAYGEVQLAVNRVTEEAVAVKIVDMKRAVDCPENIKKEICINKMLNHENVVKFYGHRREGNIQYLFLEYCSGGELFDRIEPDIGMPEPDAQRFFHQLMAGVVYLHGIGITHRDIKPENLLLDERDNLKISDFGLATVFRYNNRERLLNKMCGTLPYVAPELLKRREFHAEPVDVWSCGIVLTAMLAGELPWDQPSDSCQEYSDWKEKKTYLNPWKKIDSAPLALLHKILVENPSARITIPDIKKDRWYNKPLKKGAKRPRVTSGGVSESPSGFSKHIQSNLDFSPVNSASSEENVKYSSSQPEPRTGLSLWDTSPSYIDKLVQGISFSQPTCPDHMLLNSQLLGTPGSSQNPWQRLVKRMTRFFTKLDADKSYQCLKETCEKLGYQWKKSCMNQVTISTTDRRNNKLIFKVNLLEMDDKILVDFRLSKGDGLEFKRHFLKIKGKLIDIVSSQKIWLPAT
Summary of the method: as §1

[11] = target: T11, CK1δ(h) (Homo sapiens, UniProt P48730); conditions: read-out: Inhibition(%) @ 1 µM RK-019
T11 construct: purchased Eurofins Discovery Services (KinaseProfiler)
Summary of the method: as §1

[12] = target: T12, CLK3(h) (Homo sapiens, UniProt P49761); conditions: read-out: Inhibition(%) @ 1 µM RK-019
T12 construct: purchased Eurofins Discovery Services (KinaseProfiler)
Summary of the method: as §1

[13] = target: T13, CaMKIV(h) (Homo sapiens, UniProt Q16566); conditions: read-out: Inhibition(%) @ 1 µM RK-019
T13 construct: purchased Eurofins Discovery Services (KinaseProfiler)
Summary of the method: as §1

[14] = target: T14, DAPK1(h) (Homo sapiens, UniProt P53355); conditions: read-out: Inhibition(%) @ 1 µM RK-019
T14 construct: purchased Eurofins Discovery Services (KinaseProfiler)
Summary of the method: as §1

[15] = target: T15, DDR1(h) (Homo sapiens, UniProt Q08345); conditions: read-out: Inhibition(%) @ 1 µM RK-019
T15 construct: purchased Eurofins Discovery Services (KinaseProfiler)
Summary of the method: as §1

[16] = target: T16, EGFR(L858R)(h) (Homo sapiens, UniProt P00533, L858R); conditions: read-out: Inhibition(%) @ 1 µM RK-019
T16 construct: purchased Eurofins Discovery Services (KinaseProfiler)
Summary of the method: as §1

[17] = target: T17, EphB4(h) (Homo sapiens, UniProt P54760); conditions: read-out: Inhibition(%) @ 1 µM RK-019
T17 construct: purchased Eurofins Discovery Services (KinaseProfiler)
Summary of the method: as §1

[18] = target: T18, FGFR1(V561M)(h) (Homo sapiens, UniProt P11362, V561M); conditions: read-out: Inhibition(%) @ 1 µM RK-019
T18 construct: purchased Eurofins Discovery Services (KinaseProfiler)
Summary of the method: as §1

[19] = target: T19, FGFR4(h) (Homo sapiens, UniProt P22455)
T19 construct: purchased Eurofins Discovery Services (KinaseProfiler)
T19 sequence (P22455 22-802): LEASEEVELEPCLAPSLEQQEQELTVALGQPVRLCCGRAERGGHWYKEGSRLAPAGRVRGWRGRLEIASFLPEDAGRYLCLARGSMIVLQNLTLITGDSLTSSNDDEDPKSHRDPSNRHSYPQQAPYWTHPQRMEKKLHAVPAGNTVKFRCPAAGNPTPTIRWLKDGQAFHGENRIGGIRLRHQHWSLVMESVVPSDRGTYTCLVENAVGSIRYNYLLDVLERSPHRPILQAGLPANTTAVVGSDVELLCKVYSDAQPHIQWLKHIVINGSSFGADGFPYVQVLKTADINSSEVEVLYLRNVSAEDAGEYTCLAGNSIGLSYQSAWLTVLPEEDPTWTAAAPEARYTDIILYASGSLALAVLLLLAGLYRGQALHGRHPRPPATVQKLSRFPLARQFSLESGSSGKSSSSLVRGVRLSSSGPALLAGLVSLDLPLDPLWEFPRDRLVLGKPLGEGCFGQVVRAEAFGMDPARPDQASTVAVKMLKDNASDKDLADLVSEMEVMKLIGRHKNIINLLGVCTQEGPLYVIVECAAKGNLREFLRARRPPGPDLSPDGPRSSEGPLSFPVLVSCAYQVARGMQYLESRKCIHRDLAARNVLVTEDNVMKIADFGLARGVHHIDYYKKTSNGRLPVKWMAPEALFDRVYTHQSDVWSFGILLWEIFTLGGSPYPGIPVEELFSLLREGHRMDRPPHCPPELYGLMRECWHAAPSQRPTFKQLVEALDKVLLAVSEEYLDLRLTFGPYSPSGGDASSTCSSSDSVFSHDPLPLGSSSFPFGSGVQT
Summary of the method: as §1

[20] = target: T20, GRK2(h) (Homo sapiens, UniProt P25098); conditions: read-out: Inhibition(%) @ 1 µM RK-019
T20 construct: purchased Eurofins Discovery Services (KinaseProfiler)
Summary of the method: as §1

[21] = target: T21, MAP4K4(h) (Homo sapiens, UniProt O95819); conditions: read-out: Inhibition(%) @ 1 µM RK-019
T21 construct: purchased Eurofins Discovery Services (KinaseProfiler)
Summary of the method: as §1

[22] = target: T22, MARK3(h) (Homo sapiens, UniProt P27448); conditions: read-out: Inhibition(%) @ 1 µM RK-019
T22 construct: purchased Eurofins Discovery Services (KinaseProfiler)
T22 sequence (P27448 whole entry): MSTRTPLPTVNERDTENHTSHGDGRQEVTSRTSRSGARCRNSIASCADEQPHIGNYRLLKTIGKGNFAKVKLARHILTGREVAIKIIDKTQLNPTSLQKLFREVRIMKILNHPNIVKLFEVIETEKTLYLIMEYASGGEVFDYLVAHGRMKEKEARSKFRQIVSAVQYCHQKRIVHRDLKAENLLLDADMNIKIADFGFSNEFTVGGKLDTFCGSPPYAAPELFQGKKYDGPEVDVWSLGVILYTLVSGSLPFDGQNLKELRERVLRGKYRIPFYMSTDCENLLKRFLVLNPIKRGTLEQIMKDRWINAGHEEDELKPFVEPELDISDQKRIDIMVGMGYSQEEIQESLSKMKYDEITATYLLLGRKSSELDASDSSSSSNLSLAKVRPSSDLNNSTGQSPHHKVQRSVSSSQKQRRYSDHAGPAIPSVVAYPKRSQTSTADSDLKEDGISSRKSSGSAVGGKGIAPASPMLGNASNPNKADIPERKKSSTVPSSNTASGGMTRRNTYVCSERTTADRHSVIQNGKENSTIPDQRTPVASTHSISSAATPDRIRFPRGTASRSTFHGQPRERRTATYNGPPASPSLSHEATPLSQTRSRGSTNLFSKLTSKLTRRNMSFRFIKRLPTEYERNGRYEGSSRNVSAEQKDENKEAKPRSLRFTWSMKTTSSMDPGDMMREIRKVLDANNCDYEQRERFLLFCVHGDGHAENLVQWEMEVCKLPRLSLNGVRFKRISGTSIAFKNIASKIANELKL
Summary of the method: as §1

[23] = target: T23, MLK1(h) (Homo sapiens, UniProt P80192); conditions: read-out: Inhibition(%) @ 1 µM RK-019
T23 construct: purchased Eurofins Discovery Services (KinaseProfiler)
Summary of the method: as §1

[24] = target: T24, Met(Y1248H)(h) (Homo sapiens, UniProt P08581, Y1230H); conditions: read-out: Inhibition(%) @ 1 µM RK-019
T24 construct: purchased Eurofins Discovery Services (KinaseProfiler)
Summary of the method: as §1

[25] = target: T25, NEK11(h) (Homo sapiens, UniProt Q8NG66); conditions: read-out: Inhibition(%) @ 1 µM RK-019
T25 construct: purchased Eurofins Discovery Services (KinaseProfiler)
T25 sequence (Q8NG66 whole entry): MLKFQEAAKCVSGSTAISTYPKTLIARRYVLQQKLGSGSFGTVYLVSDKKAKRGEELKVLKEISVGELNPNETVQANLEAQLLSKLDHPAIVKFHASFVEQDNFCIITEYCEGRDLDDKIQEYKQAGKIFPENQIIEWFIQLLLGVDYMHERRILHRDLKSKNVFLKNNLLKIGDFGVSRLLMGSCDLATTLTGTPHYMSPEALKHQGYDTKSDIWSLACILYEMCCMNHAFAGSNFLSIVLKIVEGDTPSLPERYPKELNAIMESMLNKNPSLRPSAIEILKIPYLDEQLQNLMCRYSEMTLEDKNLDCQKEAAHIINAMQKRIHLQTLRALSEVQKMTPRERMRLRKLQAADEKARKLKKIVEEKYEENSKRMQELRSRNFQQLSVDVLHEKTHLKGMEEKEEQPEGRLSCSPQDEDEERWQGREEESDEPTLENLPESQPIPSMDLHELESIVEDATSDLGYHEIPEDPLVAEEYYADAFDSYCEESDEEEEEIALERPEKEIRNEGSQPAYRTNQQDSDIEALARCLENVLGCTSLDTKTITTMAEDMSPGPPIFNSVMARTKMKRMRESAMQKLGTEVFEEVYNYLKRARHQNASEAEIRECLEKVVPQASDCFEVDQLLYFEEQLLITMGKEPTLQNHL
Summary of the method: as §1

[26] = target: T26, PI3 Kinase (p110a/p65a)(h) (Homo sapiens, UniProt P42336); conditions: read-out: Inhibition(%) @ 1 µM RK-019
T26 construct: purchased Eurofins Discovery Services (KinaseProfiler)
Summary of the method: as §1

[27] = target: T27, PKCη(h) (Homo sapiens, UniProt P24723); conditions: read-out: Inhibition(%) @ 1 µM RK-019
T27 construct: purchased Eurofins Discovery Services (KinaseProfiler)
T27 sequence (P24723 whole entry): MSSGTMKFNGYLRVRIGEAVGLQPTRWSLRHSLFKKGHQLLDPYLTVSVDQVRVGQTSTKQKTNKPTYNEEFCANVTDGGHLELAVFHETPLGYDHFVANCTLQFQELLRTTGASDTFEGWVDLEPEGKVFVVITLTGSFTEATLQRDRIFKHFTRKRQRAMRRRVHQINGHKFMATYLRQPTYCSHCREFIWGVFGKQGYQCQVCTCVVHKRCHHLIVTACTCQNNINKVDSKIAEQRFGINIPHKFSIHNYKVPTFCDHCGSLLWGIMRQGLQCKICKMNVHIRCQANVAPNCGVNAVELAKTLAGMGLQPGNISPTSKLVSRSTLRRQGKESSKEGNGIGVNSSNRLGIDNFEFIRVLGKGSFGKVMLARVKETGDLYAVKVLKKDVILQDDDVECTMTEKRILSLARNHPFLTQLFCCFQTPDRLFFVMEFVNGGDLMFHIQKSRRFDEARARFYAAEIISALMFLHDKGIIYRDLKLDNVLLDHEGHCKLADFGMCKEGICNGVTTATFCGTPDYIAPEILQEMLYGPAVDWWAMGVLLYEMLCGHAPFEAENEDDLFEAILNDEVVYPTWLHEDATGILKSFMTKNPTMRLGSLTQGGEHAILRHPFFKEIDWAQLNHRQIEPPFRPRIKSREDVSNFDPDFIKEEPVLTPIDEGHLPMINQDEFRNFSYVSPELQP
Summary of the method: as §1

[28] = target: T28, PKCμ(h) (Homo sapiens, UniProt Q15139); conditions: read-out: Inhibition(%) @ 1 µM RK-019
T28 construct: purchased Eurofins Discovery Services (KinaseProfiler)
T28 sequence (Q15139 whole entry): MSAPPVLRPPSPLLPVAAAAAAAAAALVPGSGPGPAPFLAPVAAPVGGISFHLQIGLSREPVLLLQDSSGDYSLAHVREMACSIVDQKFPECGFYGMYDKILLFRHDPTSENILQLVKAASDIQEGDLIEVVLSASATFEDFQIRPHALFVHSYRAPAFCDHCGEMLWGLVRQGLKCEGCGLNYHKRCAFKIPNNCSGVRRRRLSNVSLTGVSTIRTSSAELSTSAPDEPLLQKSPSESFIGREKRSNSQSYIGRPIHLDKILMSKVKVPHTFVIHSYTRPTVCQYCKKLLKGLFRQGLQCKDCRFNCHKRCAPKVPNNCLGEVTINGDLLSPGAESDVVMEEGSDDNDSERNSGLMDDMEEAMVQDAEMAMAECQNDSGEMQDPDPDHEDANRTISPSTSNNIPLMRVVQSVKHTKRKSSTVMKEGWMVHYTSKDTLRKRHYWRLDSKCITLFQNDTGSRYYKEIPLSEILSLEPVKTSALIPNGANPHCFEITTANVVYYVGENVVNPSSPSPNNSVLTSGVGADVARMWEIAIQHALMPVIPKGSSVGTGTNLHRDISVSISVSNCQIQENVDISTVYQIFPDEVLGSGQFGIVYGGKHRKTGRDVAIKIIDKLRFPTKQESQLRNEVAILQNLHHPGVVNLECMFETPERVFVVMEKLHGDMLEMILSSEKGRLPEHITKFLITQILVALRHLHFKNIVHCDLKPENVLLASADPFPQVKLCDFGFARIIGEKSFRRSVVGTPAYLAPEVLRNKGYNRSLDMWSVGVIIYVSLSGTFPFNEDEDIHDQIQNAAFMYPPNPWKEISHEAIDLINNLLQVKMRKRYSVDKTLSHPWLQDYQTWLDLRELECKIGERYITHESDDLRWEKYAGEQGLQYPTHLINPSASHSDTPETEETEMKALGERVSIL
Summary of the method: as §1

[29] = target: T29, SAPK4(h) (Homo sapiens, UniProt O15264); conditions: read-out: Inhibition(%) @ 1 µM RK-019
T29 construct: purchased Eurofins Discovery Services (KinaseProfiler)
Summary of the method: as §1

[30] = target: T30, SIK(h) (Homo sapiens, UniProt P57059); conditions: read-out: Inhibition(%) @ 1 µM RK-019
T30 construct: purchased Eurofins Discovery Services (KinaseProfiler)
T30 sequence (P57059 whole entry): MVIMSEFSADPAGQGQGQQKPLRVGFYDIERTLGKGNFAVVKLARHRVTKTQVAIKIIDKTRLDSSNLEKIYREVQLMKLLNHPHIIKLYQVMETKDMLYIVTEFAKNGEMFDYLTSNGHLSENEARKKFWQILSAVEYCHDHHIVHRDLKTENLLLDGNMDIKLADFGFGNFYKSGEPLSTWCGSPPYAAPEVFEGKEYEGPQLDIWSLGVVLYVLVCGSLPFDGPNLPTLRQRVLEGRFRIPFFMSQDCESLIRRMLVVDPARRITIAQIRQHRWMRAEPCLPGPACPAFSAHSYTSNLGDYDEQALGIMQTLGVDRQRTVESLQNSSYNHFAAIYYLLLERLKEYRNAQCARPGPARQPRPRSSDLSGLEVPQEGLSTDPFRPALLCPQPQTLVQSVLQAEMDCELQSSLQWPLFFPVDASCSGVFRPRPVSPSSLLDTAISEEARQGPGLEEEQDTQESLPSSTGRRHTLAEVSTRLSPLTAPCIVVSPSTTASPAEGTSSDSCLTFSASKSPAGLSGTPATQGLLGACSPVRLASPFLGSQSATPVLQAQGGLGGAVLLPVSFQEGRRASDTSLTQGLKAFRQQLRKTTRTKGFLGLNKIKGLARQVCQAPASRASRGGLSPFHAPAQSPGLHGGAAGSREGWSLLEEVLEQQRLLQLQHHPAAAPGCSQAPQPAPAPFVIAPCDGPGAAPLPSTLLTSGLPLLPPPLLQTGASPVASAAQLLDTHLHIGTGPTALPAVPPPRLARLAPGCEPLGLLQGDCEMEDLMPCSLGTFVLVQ
Summary of the method: as §1

[31] = target: T31, SIK2(h) (Homo sapiens, UniProt Q9H0K1); conditions: read-out: Inhibition(%) @ 1 µM RK-019
T31 construct: purchased Eurofins Discovery Services (KinaseProfiler)
Summary of the method: as §1

[32] = target: T32, TNIK(h) (Homo sapiens, UniProt Q9UKE5); conditions: read-out: Inhibition(%) @ 1 µM RK-019
T32 construct: purchased Eurofins Discovery Services (KinaseProfiler)
Summary of the method: as §1

[33] = target: T33, Tie2(R849W)(h) (Homo sapiens, UniProt Q02763, R849W); conditions: read-out: Inhibition(%) @ 1 µM RK-019
T33 construct: purchased Eurofins Discovery Services (KinaseProfiler)
Summary of the method: as §1

[34] = target: T34, TrkB(h) (Homo sapiens, UniProt Q16620); conditions: read-out: Inhibition(%) @ 1 µM RK-019
T34 construct: purchased Eurofins Discovery Services (KinaseProfiler)
Summary of the method: as §1

[35] = target: T35, ZIPK(h) (Homo sapiens, UniProt O43293); conditions: read-out: Inhibition(%) @ 1 µM RK-019
T35 construct: purchased Eurofins Discovery Services (KinaseProfiler)
Summary of the method: as §1

[36] = target: T36, c-RAF(h) (Homo sapiens, UniProt P04049); conditions: read-out: Inhibition(%) @ 1 µM RK-019
T36 construct: purchased Eurofins Discovery Services (KinaseProfiler)
Summary of the method: as §1

With COc1cc(OC)cc(N(CCN[C@H](C)CO)c2ccc3ncc(-c4cnn(C)c4)c(=O)n3c2)c1 [RK-019, (R)-7-((3,5-dimethoxyphenyl) (2-((1-hydroxypropan-2-yl)amino)ethyl)amino)-3-(1-methyl-1H-pyrazol-4-yl)-4H-pyrido [1,2-a]pyrimidin-4-one] the activity at 1 µM [1] was 107%, the activity at 1 µM [2] was 105% and the activity at 1 µM [3] was 107%. The activity at 1 µM [4] was 86%, the activity at 1 µM [5] was 116% and the activity at 1 µM [6] was 89%. It also gave an activity at 1 µM [7] of 96%, an activity at 1 µM [8] of 99% and an activity at 1 µM [9] of 110%. For the same compound, the activity at 1 µM [10] was 90%, the activity at 1 µM [11] was 94% and the activity at 1 µM [12] was 102%. The activity at 1 µM [13] was 113%, the activity at 1 µM [14] was 100% and the activity at 1 µM [15] was 19%. It also gave an activity at 1 µM [16] of 114%, an activity at 1 µM [17] of 109% and an activity at 1 µM [18] of 70%. The activity at 1 µM ([19]; FGFR4(h), read-out: Inhibition(%) @ 1 µM RK-019) was 5%, the inhibition at 1 µM ([19]; FGFR4, 1 µM, read-out: inhibition (hit in panel)) was > 90% and the activity at 1 µM [20] was 103%. It also gave an activity at 1 µM [21] of 82%, an activity at 1 µM [22] of 80% and an activity at 1 µM [23] of 99%. It also gave an activity at 1 µM [24] of 113%, an activity at 1 µM [25] of 118% and an activity at 1 µM [26] of 94%. For the same compound, the activity at 1 µM [27] was 108%, the activity at 1 µM [28] was 107% and the activity at 1 µM [29] was 112%. It also gave an activity at 1 µM [30] of 89%, an activity at 1 µM [31] of 99% and an activity at 1 µM [32] of 42%. The activity at 1 µM [33] was 82%, the activity at 1 µM [34] was 94% and the activity at 1 µM [35] was 96%. The activity at 1 µM [36] was 94%.
